The structures appear in SMILES notation. Starred links: 1 amine or outer side, 2 acyl side, 3 side chain; linkers in the order of their positions; H or OH if unused. Non-standard residues stand in square brackets, D forms with d. Residues, ends and D or L forms follow the SMILES beside them. Trp(4-Cl)(βS-Me) = C[C@@H](c1c[nH]c2cccc(Cl)c12)[C@H](N)C(=O)O; Trp(βS-Me,4-F) = C[C@@H](c1c[nH]c2cccc(F)c12)[C@H](N)C(=O)O; Bip(4'-COOH) = N[C@@H](Cc1ccc(-c2ccc(C(=O)O)cc2)cc1)C(=O)O; Ala(1-bicyclo(1.1.1)pentyl) = N[C@@H](CC12CC(C1)C2)C(=O)O; dPro(4R-Bzl(4-F)) = O=C(O)[C@H]1C[C@@H](Cc2ccc(F)cc2)CN1; X19 = O=C([C@H]1C[C@@H](Cc2ccc(Br)cc2)CN1[*:1])[*:2]; 1Nal(3S-Me) = C[C@@H](c1cccc2ccccc12)[C@H](N)C(=O)O; Ala(pyrimidin-5-yl) = N[C@@H](Cc1cncnc1)C(=O)O; Phe(4-COOH) = N[C@@H](Cc1ccc(C(=O)O)cc1)C(=O)O; dαMeDab = C[C@](CCN[*:3])(N[*:1])C(=O)[*:2]; Pro(cis-4-F) = O=C(O)[C@@H]1C[C@H](F)CN1; Ala(4-THP) = N[C@@H](CC1CCOCC1)C(=O)O; d(αMeK) = C[C@@](N)(CCCCN)C(=O)O; 4Pal = N[C@@H](Cc1ccncc1)C(=O)O; aThr = C[C@H](O)[C@H](N)C(=O)O; αMeD = C[C@](N)(CC(=O)O)C(=O)O; αMeK = C[C@](N)(CCCCN)C(=O)O; Dab = NCC[C@H](N)C(=O)O; Aib = CC(C)(N)C(=O)O

By IC50 is commonly meant the midpoint of a concentration-inhibition curve.

The assay deals with T1, IL-1β (Homo sapiens, UniProt P01584).
T1 construct: purchased BioLegend 579404
T1 sequence (P01584 117-269): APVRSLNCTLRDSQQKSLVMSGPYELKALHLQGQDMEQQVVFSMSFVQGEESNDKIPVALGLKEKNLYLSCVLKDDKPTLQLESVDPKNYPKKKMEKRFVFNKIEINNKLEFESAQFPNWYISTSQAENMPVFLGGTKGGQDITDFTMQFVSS
The assay is described as follows: IL-6 assay in MRC5 cells: inhibition of IL-1β induced IL-6 secretion (AlphaLISA). The format is cell-based. Particulars: inhibition of IL-1β induced IL-6 secretion in MRC5 cells; read-out: MRC5 IC50. In short, it runs like this: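 Compound was pre-incubated 1 h at ambient temperature with recombinant human IL-1β at 2λ EC80 before adding human lung fibroblast MRC5 cells (3000/well) in EMEM with 0.025% BSA. After overnight culture at 37 °C, 5% CO2, secreted IL-6 in conditioned medium was measured by AlphaLISA; IC50 from 4-parameter logistic fits.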
Background: In Alpha technology, singlet oxygen from a donor bead excites a nearby acceptor bead.
With `C[C@H](O)[C@@H]1NC(=O)C(C)(C)NC(=O)[C@H]([C@@H](C)c2c[nH]c3cccc(F)c23)NC(=O)[C@@H]2C[C@H](F)CN2C(=O)CNC(=O)[C@H](Cc2ccc(C(=O)O)cc2)NC(=O)[C@H](Cc2ccncc2)NC(=O)[C@H](Cc2ccc(-c3ccc(C(=O)O)cc3)cc2)NC(=O)[C@H]2C[C@@H](Cc3ccc(F)cc3)CN2C(=O)CNC(=O)[C@H](CCN)NC(=O)[C@H](CCC(N)=O)NC(=O)[C@H](Cc2cncnc2)NC(=O)[C@](C)(CCCCN)NC(=O)[C@H](Cc2c[nH]c3ccccc23)NC1=O` [Example 138] (cyclo([Bip(4'-COOH)][4Pal][Phe(4-COOH)]G[Pro(cis-4-F)][Trp(βS-Me,4-F)][Aib][aThr]W[αMeK][Ala(pyrimidin-5-yl)]Q[Dab]G[dPro(4R-Bzl(4-F))])), the IC50 came out at 0.021 nM.
In the case of `C[C@@H](c1c[nH]c2cccc(Cl)c12)[C@@H]1NC(=O)[C@@H]2C[C@H](F)CN2C(=O)CNC(=O)[C@H](Cc2ccc(C(=O)O)cc2)NC(=O)[C@H](Cc2ccncc2)NC(=O)[C@H](Cc2ccc(-c3ccc(C(=O)O)cc3)cc2)NC(=O)[C@H]2C[C@@H](Cc3ccc(F)cc3)CN2C(=O)CNC(=O)[C@H](CCN)NC(=O)[C@H](CCC(N)=O)NC(=O)[C@H](Cc2cncnc2)NC(=O)C(C)(C)NC(=O)[C@H](Cc2c[nH]c3ccccc23)NC(=O)[C@H](CO)NC(=O)C(C)(C)NC1=O` [Example 139] (cyclo([Bip(4'-COOH)][4Pal][Phe(4-COOH)]G[Pro(cis-4-F)][Trp(4-Cl)(βS-Me)][Aib]SW[Aib][Ala(pyrimidin-5-yl)]Q[Dab]G[dPro(4R-Bzl(4-F))])) it was 0.034 nM.
On to `C[C@@H](c1cccc2ccccc12)[C@@H]1NC(=O)[C@@H]2C[C@H](F)CN2C(=O)CNC(=O)[C@H](Cc2ccc(C(=O)O)cc2)NC(=O)[C@H](Cc2ccncc2)NC(=O)[C@H](Cc2ccc(-c3ccc(C(=O)O)cc3)cc2)NC(=O)[C@H]2C[C@@H](Cc3ccc(F)cc3)CN2C(=O)CNC(=O)[C@H](CCN)NC(=O)[C@H](CCC(N)=O)NC(=O)[C@H](Cc2cncnc2)NC(=O)C(C)(C)NC(=O)[C@H](Cc2c[nH]c3ccccc23)NC(=O)[C@H](CO)NC(=O)C(C)(C)NC1=O` [Example 140] (cyclo([Bip(4'-COOH)][4Pal][Phe(4-COOH)]G[Pro(cis-4-F)][1Nal(3S-Me)][Aib]SW[Aib][Ala(pyrimidin-5-yl)]Q[Dab]G[dPro(4R-Bzl(4-F))])), for which the IC50 worked out at 0.033 nM.
`C[C@@H](c1c[nH]c2cccc(F)c12)[C@@H]1NC(=O)[C@@H]2C[C@H](F)CN2C(=O)CNC(=O)[C@H](Cc2ccc(C(=O)O)cc2)NC(=O)[C@H](Cc2ccncc2)NC(=O)[C@H](Cc2ccc(-c3ccc(C(=O)O)cc3)cc2)NC(=O)[C@H]2C[C@@H](Cc3ccc(F)cc3)CN2C(=O)CNC(=O)[C@H](CCN)NC(=O)[C@H](CCC(N)=O)NC(=O)[C@H](Cc2cncnc2)NC(=O)[C@](C)(CC(=O)O)NC(=O)[C@H](Cc2c[nH]c3ccccc23)NC(=O)[C@H](CO)NC(=O)C(C)(C)NC1=O` [Example 141] (cyclo([Bip(4'-COOH)][4Pal][Phe(4-COOH)]G[Pro(cis-4-F)][Trp(βS-Me,4-F)][Aib]SW[αMeD][Ala(pyrimidin-5-yl)]Q[Dab]G[dPro(4R-Bzl(4-F))])): the half-maximal inhibitory concentration (IC50) is 0.011 nM.
On to `C[C@@H](c1c[nH]c2cccc(F)c12)[C@@H]1NC(=O)[C@@H]2C[C@H](F)CN2C(=O)CNC(=O)[C@H](Cc2ccc(C(=O)O)cc2)NC(=O)[C@H](Cc2ccncc2)NC(=O)[C@H](Cc2ccc(-c3ccc(C(=O)O)cc3)cc2)NC(=O)[C@H]2C[C@@H](Cc3ccc(F)cc3)CN2C(=O)CNC(=O)[C@H](CCN)NC(=O)[C@H](CCC(N)=O)NC(=O)[C@H](Cc2cncnc2)NC(=O)[C@@](C)(CCN)NC(=O)[C@H](Cc2c[nH]c3ccccc23)NC(=O)[C@H](CO)NC(=O)C(C)(C)NC1=O` [Example 142] (cyclo([Bip(4'-COOH)][4Pal][Phe(4-COOH)]G[Pro(cis-4-F)][Trp(βS-Me,4-F)][Aib]SW[dαMeDab][Ala(pyrimidin-5-yl)]Q[Dab]G[dPro(4R-Bzl(4-F))])), for which the IC50 worked out at 0.019 nM.
With `C[C@@H](c1c[nH]c2cccc(F)c12)[C@@H]1NC(=O)[C@@H]2C[C@H](F)CN2C(=O)CNC(=O)[C@H](Cc2ccc(C(=O)O)cc2)NC(=O)[C@H](Cc2ccncc2)NC(=O)[C@H](Cc2ccc(-c3ccc(C(=O)O)cc3)cc2)NC(=O)[C@H]2C[C@@H](Cc3ccc(Br)cc3)CN2C(=O)CNC(=O)[C@H](CCN)NC(=O)[C@H](CCC(N)=O)NC(=O)[C@H](Cc2cncnc2)NC(=O)C(C)(C)NC(=O)[C@H](Cc2c[nH]c3ccccc23)NC(=O)[C@H](CCC(=O)O)NC(=O)C(C)(C)NC1=O` [Example 143] (cyclo([Bip(4'-COOH)][4Pal][Phe(4-COOH)]G[Pro(cis-4-F)][Trp(βS-Me,4-F)][Aib]EW[Aib][Ala(pyrimidin-5-yl)]Q[Dab]G[X19])), the IC50 turned out to be 0.026 nM.
In the case of `C[C@@H](c1c[nH]c2cccc(F)c12)[C@@H]1NC(=O)[C@@H]2C[C@H](F)CN2C(=O)CNC(=O)[C@H](Cc2ccc(C(=O)O)cc2)NC(=O)[C@H](CC23CC(C2)C3)NC(=O)[C@H](Cc2ccc(-c3ccc(C(=O)O)cc3)cc2)NC(=O)[C@H]2C[C@@H](Cc3ccc(F)cc3)CN2C(=O)CNC(=O)[C@H](CCN)NC(=O)[C@H](CCC(N)=O)NC(=O)[C@H](Cc2cncnc2)NC(=O)[C@](C)(CCCCN)NC(=O)[C@H](Cc2c[nH]c3ccccc23)NC(=O)[C@H](CO)NC(=O)C(C)(C)NC1=O` [Example 144] (cyclo([Bip(4'-COOH)][Ala(1-bicyclo(1.1.1)pentyl)][Phe(4-COOH)]G[Pro(cis-4-F)][Trp(βS-Me,4-F)][Aib]SW[αMeK][Ala(pyrimidin-5-yl)]Q[Dab]G[dPro(4R-Bzl(4-F))])) it was 0.031 nM; in that of `C[C@@H](c1c[nH]c2cccc(F)c12)[C@@H]1NC(=O)[C@@H]2C[C@H](F)CN2C(=O)CNC(=O)[C@H](Cc2ccc(C(=O)O)cc2)NC(=O)[C@H](CC23CC(C2)C3)NC(=O)[C@H](Cc2ccc(-c3ccc(C(=O)O)cc3)cc2)NC(=O)[C@H]2C[C@@H](Cc3ccc(F)cc3)CN2C(=O)CNC(=O)[C@H](CCN)NC(=O)[C@H](CCC(N)=O)NC(=O)[C@H](Cc2cncnc2)NC(=O)[C@@](C)(CCCCN)NC(=O)[C@H](Cc2c[nH]c3ccccc23)NC(=O)[C@H](CO)NC(=O)C(C)(C)NC1=O` [Example 145] (cyclo([Bip(4'-COOH)][Ala(1-bicyclo(1.1.1)pentyl)][Phe(4-COOH)]G[Pro(cis-4-F)][Trp(βS-Me,4-F)][Aib]SW[d(αMeK)][Ala(pyrimidin-5-yl)]Q[Dab]G[dPro(4R-Bzl(4-F))])), 0.041 nM; in that of `C[C@@H](c1c[nH]c2cccc(F)c12)[C@@H]1NC(=O)[C@@H]2C[C@H](F)CN2C(=O)CNC(=O)[C@H](Cc2ccc(C(=O)O)cc2)NC(=O)[C@H](CC23CC(C2)C3)NC(=O)[C@H](Cc2ccc(-c3ccc(C(=O)O)cc3)cc2)NC(=O)[C@H]2C[C@@H](Cc3ccc(F)cc3)CN2C(=O)CNC(=O)[C@H](CCN)NC(=O)[C@H](CCC(N)=O)NC(=O)[C@H](CC2CCOCC2)NC(=O)[C@](C)(CCCCN)NC(=O)[C@H](Cc2c[nH]c3ccccc23)NC(=O)[C@H](CO)NC(=O)C(C)(C)NC1=O` [Example 146] (cyclo([Bip(4'-COOH)][Ala(1-bicyclo(1.1.1)pentyl)][Phe(4-COOH)]G[Pro(cis-4-F)][Trp(βS-Me,4-F)][Aib]SW[αMeK][Ala(4-THP)]Q[Dab]G[dPro(4R-Bzl(4-F))])), 0.034 nM.

The values are drawn from patent US20260242419A1, “A CYCLIC PEPTIDE FOR TRAPPING INTERLEUKIN-1 BETA” (Merck Sharp & Dohme LLC, priority 2023, published 2026).
